Active and inactive are the calls of the source. No rule for the calls is given here.
Tested on: CCRIS mutagenicity, Ames/micronucleus/aberration tests
Test: CCRIS mutagenicity studies

Measured: mutagenic call

CCN(C(=O)N(CC)c1ccccc1)c1ccccc1
inactive: Test System: AMES SALMONELLA TYPHIMURIUM, Strain/Indicator: TA97, Metabolic Activation: HAMSTER, LIVER, S-9, AROCLOR 1254 (10%), Method: PREINCUBATION inactive; negative | Test System: AMES SALMONELLA TYPHIMURIUM, Strain/Indicator: TA97, Metabolic Activation: HAMSTER, LIVER, S-9, AROCLOR 1254 (30%), Method: PREINCUBATION inactive; negative | Test System: AMES SALMONELLA TYPHIMURIUM, Strain/Indicator: TA97, Metabolic Activation: NONE, Method: PREINCUBATION inactive; negative | Test System: AMES SALMONELLA TYPHIMURIUM, Strain/Indicator: TA97, Metabolic Activation: RAT, LIVER, S-9, AROCLOR 1254 (10%), Method: PREINCUBATION inactive; negative | Test System: AMES SALMONELLA TYPHIMURIUM, Strain/Indicator: TA97, Metabolic Activation: RAT, LIVER, S-9, AROCLOR 1254 (30%), Method: PREINCUBATION inactive; negative | Test System: AMES SALMONELLA TYPHIMURIUM, Strain/Indicator: TA98, Metabolic Activation: HAMSTER, LIVER, S-9, AROCLOR 1254 (10%), Method: PREINCUBATION inactive; negative | Test System: AMES SALMONELLA TYPHIMURIUM, Strain/Indicator: TA98, Metabolic Activation: HAMSTER, LIVER, S-9, AROCLOR 1254 (30%), Method: PREINCUBATION inactive; negative | Test System: AMES SALMONELLA TYPHIMURIUM, Strain/Indicator: TA98, Metabolic Activation: NONE, Method: PREINCUBATION inactive; negative | Test System: AMES SALMONELLA TYPHIMURIUM, Strain/Indicator: TA98, Metabolic Activation: RAT, LIVER, S-9, AROCLOR 1254 (10%), Method: PREINCUBATION inactive; negative | Test System: AMES SALMONELLA TYPHIMURIUM, Strain/Indicator: TA98, Metabolic Activation: RAT, LIVER, S-9, AROCLOR 1254 (30%), Method: PREINCUBATION inactive; negative | Test System: AMES SALMONELLA TYPHIMURIUM, Strain/Indicator: TA100, Metabolic Activation: HAMSTER, LIVER, S-9, AROCLOR 1254 (10%), Method: PREINCUBATION inactive; negative | Test System: AMES SALMONELLA TYPHIMURIUM, Strain/Indicator: TA100, Metabolic Activation: HAMSTER, LIVER, S-9, AROCLOR 1254 (30%), Method: PREINCUBATION inactive; negative | Test System: AMES SALMONELLA TYPHIMURIUM, Strain/Indicator: TA100, Metabolic Activation: NONE, Method: PREINCUBATION inactive; negative | Test System: AMES SALMONELLA TYPHIMURIUM, Strain/Indicator: TA100, Metabolic Activation: RAT, LIVER, S-9, AROCLOR 1254 (10%), Method: PREINCUBATION inactive; negative | Test System: AMES SALMONELLA TYPHIMURIUM, Strain/Indicator: TA100, Metabolic Activation: RAT, LIVER, S-9, AROCLOR 1254 (30%), Method: PREINCUBATION inactive; negative | Test System: AMES SALMONELLA TYPHIMURIUM, Strain/Indicator: TA1535, Metabolic Activation: HAMSTER, LIVER, S-9, AROCLOR 1254 (10%), Method: PREINCUBATION inactive; negative | Test System: AMES SALMONELLA TYPHIMURIUM, Strain/Indicator: TA1535, Metabolic Activation: HAMSTER, LIVER, S-9, AROCLOR 1254 (30%), Method: PREINCUBATION inactive; negative | Test System: AMES SALMONELLA TYPHIMURIUM, Strain/Indicator: TA1535, Metabolic Activation: NONE, Method: PREINCUBATION inactive; negative | Test System: AMES SALMONELLA TYPHIMURIUM, Strain/Indicator: TA1535, Metabolic Activation: RAT, LIVER, S-9, AROCLOR 1254 (10%), Method: PREINCUBATION inactive; negative | Test System: AMES SALMONELLA TYPHIMURIUM, Strain/Indicator: TA1535, Metabolic Activation: RAT, LIVER, S-9, AROCLOR 1254 (30%), Method: PREINCUBATION inactive; negative

COCCc1ccc(OCC(O)CN(N=O)C(C)C)cc1 (configuration not stated)
active: Test System: UDS HUMAN HEPATOCYTES, Strain/Indicator: THY INCORP, Metabolic Activation: NONE, Method: AUTORADIOGRAPHY active; positive | Test System: UDS RAT HEPATOCYTES, Strain/Indicator: THY INCORP, Metabolic Activation: NONE, Method: AUTORADIOGRAPHY active; positive

c1cc(OCC2CO2)ccc1Cc1ccc(OCC2CO2)cc1 (configuration not stated)
inactive: End Point: In vitro micronucleus, Test System: HepG2 cells, Metabolic Activation: None inactive; negative

OC1(c2ccc(Cl)cc2)c2ccccc2C2=NCCN21 (configuration not stated)
active: Test System: CHINESE HAMSTER V-79, Strain/Indicator: V-79/6-THIOGUANINE, Metabolic Activation: NONE active; positive | Test System: CHINESE HAMSTER V-79, Strain/Indicator: V-79/6-THIOGUANINE, Metabolic Activation: S-9 active; positive

C[C@]12CCC=C(C=O)[C@@]1(C=O)C2
active: Test System: AMES SALMONELLA TYPHIMURIUM, Strain/Indicator: TA98, Metabolic Activation: NONE, Method: STANDARD PLATE active; positive | Test System: AMES SALMONELLA TYPHIMURIUM, Strain/Indicator: TA100, Metabolic Activation: NONE, Method: STANDARD PLATE active; positive

Source: PubChem BioAssay AID1259407 (Chemical Carcinogenesis Research Information System (CCRIS), 2018)
